# Reference: patent US20200383327A1, “METHOD OF IMPROVING PLANT PERFORMANCE” (The State of Israel, Ministry of Agriculture & Rural …, priority 2018, published 2020)
# Columns and labels:
# Format in all cases: in vivo
# [1] = tested on: Bemisia tabaci; assay: Silver leaf whitefly incidence on tomato leaves; details: 4 mM Phe solution, drench or spray, each treatment; 30 days after treatment; FIG. 10
# Procedure: FIG. 10 is a bar graph showing the effect of 4 mM Phe solution on the severity of silver leaf white fly (SLWF) on tomato plants. The Phe solution was applied by spraying and by drench on the tomato plants at 3 days before and 4 hours before incubation in the greenhouse. Incidence of SLWF was evaluated on a representative leaf 30 days after treatment.
# The insect silver leaf whitefly Bemisia tabaci Gennadius (commonly also sweet potato whitefly) occurred naturally on the treated tomato plants. The plants were kept in a greenhouse with 18-28° C. Incidence of insect individuals' number on the 10th leaf of the tomato plants was counted.
# [2] = tested on: Tomato yellow leaf curl virus (TYLCV); assay: Tomato yellow leaf curl virus severity on tomato plants; details: 4 mM Phe solution, spray and drench to root zone; AUDPC during 51 days; FIG. 13
# Procedure: FIG. 13 is a bar graph showing the effect of 4 mM solution on the severity of Tomato yellow leaf curl virus (TYLCV) on leaves of tomato plants. The Phe solution was applied by spraying and by drench on the tomato plants at 3 days before and 4 hours before incubation in the greenhouse close to TYLCV infected tomato plants. Infection was natural by the vector insect silverleaf white fly. Disease severity was evaluated on a scale of 0-100% severity of symptoms coverage during 51 days after treatment and it is expressed as the area under disease progress curve (AUDPC).
# The effect of Phe on TYLCV Begomovirus on tomato plants was assessed. Tomato yellow leaf curl virus (TYLCV) is a DNA virus from the genus Begomovirus. The virus is transmitted by an insect vector the whitefly Bemisia tabaci, (silverleaf whitefly; sweet potato whitefly from the family Aleyrodidae). Plants infected are tomato and also eggplant, potato, tobacco, bean, and pepper. Virus infection causes stunting, reduction of leaf size, upward cupping/curling of leaves, chlorosis on leaves and flowers, and reduction of fruit production.
# [3] = tested on: Alternaria alternata; assay: Postharvest decay of 'Ettinger' avocado fruit, wound inoculated; details: 4 mM phenylalanine, FIG. 5
# Procedure: FIGS. 5A-5B are a graph and a photograph showing induced resistance of harvested Avocado fruit to fungal pathogens. FIG. […] A day after dipping the treated or untreated fruits were wound inoculated on four spots in each fruit with 7 μl of Alternaria alternata conidia suspension (10^6 conidia/ml) and the decay area was monitored for 6 days post inoculation (dpi). FIG. 5B is representative pictures of inoculated fruits of control and treatments with 4 mM phenylalanine, 6 days post inoculation.
# [4] = tested on: Penicillium digitatum; assay: Postharvest decay of 'Michal' clementine fruit sprayed with conidia; details: 4 mM phenylalanine, FIG. 6
# Procedure: FIGS. 6A-6C are graphs and a photograph showing induced resistance of harvested clementine fruit to fungal pathogens. FIG. 6A is a vertical bar showing the % of decayed Clementine fruit (in a box) of the cultivar ‘Michal’ which were dipped for 30 seconds in 4 mM phenylalanine. After the fruits were dried, they were sprayed with conidia suspension of Penicillium digitatum (early infection), or alternatively the fruit was sprayed with conidia suspension two days after being dipped in phenylalanine (late infection). FIG. 6B is representative pictures of inoculated fruits of control and treatment with 4 mM phenylalanine, 5 days post inoculation. FIG. 6C is diagrams of taste evaluation of control fruit (upper panel) and phenylalanine treated fruit (lower panel) which include off-flavors (index 1-5), acidity (index 1-5), sweetness (index 1-5), and general taste (index 1-5).
# [5] = Strawberry fruit decay after pre-harvest treatment; details: 1-4 mM solution 3 weeks pre-harvest, FIG. 18
# Procedure: FIG. 18 is a graph showing the effect of Phe solution on fruit pre-harvest decay. […] Decay was monitored and documented over a period of 12 days.
# Strawberry plants were treated with 1-4 mM solution 3 weeks pre-harvest.
# [6] = Plant growth performance parameters after pre-harvest treatment
# Procedure: FIGS. 20A-20I are images and graphs showing the effects of Phe solution on plant growth performance parameters. (20A) is images of plants treated with 2 mM once or twice, once with 4 mM or non-treated (control). (20B-20C) are bar graphs showing plant height (20B) and the % increase in the plant height (20C) in treated and control plants. (20D-20E) are bar graphs showing the number of nodes per plant (20D) and the % increase in the number of nodes (20E) in treated and control plants. (20F-20G) are bar graphs showing the % increase in leaf length (20F) and the % increase in the leaf area (20G) in treated and control plants. (20H-20I) are bar graphs showing plant fresh (e.g., “wet”) weight […] and plant dry weight (20I) in treated and control plants.
# Plant were treated with Phe solution pre-harvest, and growth performance parameters, including total height, total weight (“wet” and dry), number of nodes, leaf length, and leaf area were examined.
# [7] = tested on: Powdery Mildew; assay: Powdery mildew incidence per inflorescence in mango orchard sprayed during flowering; details: application during orchard flowering; FIG. 23A
# Description: (§1) FIGS. 23A-C: Effect of flowering application on disease incidence. Avocado and Mango cv. ‘Kent’ orchards were sprayed with fungicide (Pyrimethanil+Fludioxonil) or with phenylalanine during flowering. (FIG. 23A). Powdery Mildew incidence (percentage) per inflorescence in mango orchard. (FIG. 23B). Anthracnose incidence (percentage) on harvested mango stored at ambient temperature for 12 days. (FIG. 23CB). Anthracnose incidence (percentage) on harvested avocado stored at ambient temperature for 14 days.
# (§2) Flowering is one of the more susceptible organs of the tree. Pathogenic fungi can penetrate during flowering and either infect the flower (e.g., powdery mildew) or endophytically colonize the stem and the fruit without causing any visible symptoms. Those fungi (e.g. Colletotrichum and Lasiodiplodia) become active during abiotic stress or during fruit ripening and cause fruit stem-end rot and anthracnose.
# [8] = tested on: Anthracnose; assay: Anthracnose incidence on harvested mango after orchard flowering spray; details: application during orchard flowering; stored at ambient temperature for 12 days; FIG. 23B
# Description: as §1, §2
# [9] = tested on: Anthracnose; assay: Anthracnose incidence on harvested avocado after orchard flowering spray; details: application during orchard flowering; stored at ambient temperature for 14 days; FIG. 23
# Description: as §1, §2
smiles,measurement,setting,value
"N[C@@H](Cc1ccccc1)C(=O)O [Phe, Phenylalanine]",Incidence of the Bemisia tabaci silver leaf whitefly on tomato leaves,[1],significantly suppressed
same,Severity of Tomato yellow leaf curl virus on tomato plants canopy,[2],significantly suppressed
same,Decay severity in comparison to the untreated control fruits,[3],reduced the decay severity
same,Decay severity in comparison to the untreated control fruits,[4],reduced the decay severity
same,Amount of rotten fruits (decay incidence),[5],substantially reduced amount of rotten fruits
same,Plant height,"[6]; 2 mM or 4 mM of Phe vs control, FIGS. 20A-20C",significantly higher than control
same,"Final weight at harvest, total ""wet"" weight","[6]; Phe treated vs control, FIG. 20H",significantly greater than control
same,"Final weight at harvest, total dry biomass","[6]; Phe treated vs control, FIG. 20I",significantly greater than control
same,Number of nodes on the plant's stem,"[6]; Phe treated vs control, FIGS. 20D-20E",increase in height was also correlated with the number of nodes
same,Leaf length,[6]; control compared to plants treated with 4 mM Phe,control plants had significantly shorter leaves
same,Leaf area,"[6]; control compared to plants treated with Phe, 2 mM or 4 mM once a week",reduced leaf area compared to those of plants treated with Phe
same,Mango powdery mildew,[7],reduced
same,Postharvest anthracnose in mango,[8],reduced
same,Postharvest anthracnose in avocado,[9],reduced
